Source: publication PMC11033320, “Activation of p53 signaling and regression of breast and prostate carcinoma cells by spirooxindole-benzimidazole small molecules” (Frontiers in Pharmacology, 2024)

Key:
CCRF-CEM = experiment: NCI anticancer screening, Leukemia CCRF-CEM; type: cell-based; conditions: Homo sapiens, read-out: % Growth Inhibition (GI %)
From the text: (§1) The compound has been processed according to standard method NCI-60 Human Tumor Cell Lines Screen for organic compound at development therapeutic program (DTP). Requests for access to this national resource can be submitted online at: […]

HL-60(TB) = experiment: NCI anticancer screening, Leukemia HL-60(TB); type: cell-based; conditions: Homo sapiens, read-out: % Growth Inhibition (GI %)
From the text: as §1

K-562 = experiment: NCI anticancer screening, Leukemia K-562; type: cell-based; conditions: Homo sapiens, K562; K-562, 10 μM; read-out: % Growth Inhibition (GI %)
From the text: as §1

A549/ATCC = experiment: NCI anticancer screening, Non-Small Cell Lung Cancer A549/ATCC; type: cell-based; conditions: Homo sapiens, read-out: % Growth Inhibition (GI %)
From the text: as §1

HOP-62 = experiment: NCI anticancer screening, Non-Small Cell Lung Cancer HOP-62; type: cell-based; conditions: Homo sapiens; HOP-62, 10 μM; read-out: % Growth Inhibition (GI %)
From the text: as §1

NCI-H23 = experiment: NCI anticancer screening, Non-Small Cell Lung Cancer NCI-H23; type: cell-based; conditions: Homo sapiens; NCI-H23, 10 μM; read-out: % Growth Inhibition (GI %)
From the text: as §1

NCI-H322M = experiment: NCI anticancer screening, Non-Small Cell Lung Cancer NCI-H322M; type: cell-based; conditions: Homo sapiens, read-out: % Growth Inhibition (GI %)
From the text: as §1

HCC-2998 = experiment: NCI anticancer screening, Colon Cancer HCC-2998; type: cell-based; conditions: Homo sapiens; HCC-2998, 10 μM; read-out: % Growth Inhibition (GI %)
From the text: as §1

HCT-116 = experiment: NCI anticancer screening, Colon Cancer HCT-116; type: cell-based; conditions: Homo sapiens; HCT-116, 10 μM; read-out: % Growth Inhibition (GI %)
From the text: as §1

HCT-15 = experiment: NCI anticancer screening, Colon Cancer HCT-15; type: cell-based; conditions: Homo sapiens; HCT-15, 10 μM; read-out: % Growth Inhibition (GI %)
From the text: as §1

HT29 = experiment: NCI anticancer screening, Colon Cancer HT29; type: cell-based; conditions: Homo sapiens, HT-29; HT29, 10 μM; read-out: % Growth Inhibition (GI %)
From the text: as §1

KM12 = experiment: NCI anticancer screening, Colon Cancer KM12; type: cell-based; conditions: Homo sapiens; KM12, 10 μM; read-out: % Growth Inhibition (GI %)
From the text: as §1

SW-620 = experiment: NCI anticancer screening, Colon Cancer SW-620; type: cell-based; conditions: Homo sapiens; SW-620, 10 μM; read-out: % Growth Inhibition (GI %)
From the text: as §1

SF-268 = experiment: NCI anticancer screening, CNS Cancer SF-268; type: cell-based; conditions: Homo sapiens; SF-268, 10 μM; read-out: % Growth Inhibition (GI %)
From the text: as §1

SF-295 = experiment: NCI anticancer screening, CNS Cancer SF-295; type: cell-based; conditions: Homo sapiens; SF-295, 10 μM; read-out: % Growth Inhibition (GI %)
From the text: as §1

SNB-75 = experiment: NCI anticancer screening, CNS Cancer SNB-75; type: cell-based; conditions: Homo sapiens; SNB-75, 10 μM; read-out: % Growth Inhibition (GI %)
From the text: as §1

U251 = experiment: NCI anticancer screening, CNS Cancer U251; type: cell-based; conditions: Homo sapiens, U-251; U251, 10 μM; read-out: % Growth Inhibition (GI %)
From the text: as §1

LOX IMVI = experiment: NCI anticancer screening, Melanoma LOX IMVI; type: cell-based; conditions: Homo sapiens, read-out: % Growth Inhibition (GI %)
From the text: as §1

MALME-3M = experiment: NCI anticancer screening, Melanoma MALME-3M; type: cell-based; conditions: Homo sapiens, read-out: % Growth Inhibition (GI %)
From the text: as §1

M14 = experiment: NCI anticancer screening, Melanoma M14; type: cell-based; conditions: Homo sapiens; M14, 10 μM; read-out: % Growth Inhibition (GI %)
From the text: as §1

MDA-MB-435 = experiment: NCI anticancer screening, Melanoma MDA-MB-435; type: cell-based; conditions: Homo sapiens; MDA-MB-435, 10 μM; read-out: % Growth Inhibition (GI %)
From the text: as §1

SK-MEL-28 = experiment: NCI anticancer screening, Melanoma SK-MEL-28; type: cell-based; conditions: Homo sapiens; SK-MEL-28, 10 μM; read-out: % Growth Inhibition (GI %)
From the text: as §1

SK-MEL-5 = experiment: NCI anticancer screening, Melanoma SK-MEL-5; type: cell-based; conditions: Homo sapiens; SK-MEL-5, 10 μM; read-out: % Growth Inhibition (GI %)
From the text: as §1

IGROV1 = experiment: NCI anticancer screening, Ovarian Cancer IGROV1; type: cell-based; conditions: Homo sapiens, IGROV-1; IGROV1, 10 μM; read-out: % Growth Inhibition (GI %)
From the text: as §1

OVCAR-4 = experiment: NCI anticancer screening, Ovarian Cancer OVCAR-4; type: cell-based; conditions: Homo sapiens; OVCAR-4, 10 μM; read-out: % Growth Inhibition (GI %)
From the text: as §1

OVCAR-5 = experiment: NCI anticancer screening, Ovarian Cancer OVCAR-5; type: cell-based; conditions: Homo sapiens; OVCAR-5, 10 μM; read-out: % Growth Inhibition (GI %)
From the text: as §1

OVCAR-8 = experiment: NCI anticancer screening, Ovarian Cancer OVCAR-8; type: cell-based; conditions: Homo sapiens; OVCAR-8, 10 μM; read-out: % Growth Inhibition (GI %)
From the text: as §1

NCI/ADR-RES = experiment: NCI anticancer screening, Ovarian Cancer NCI/ADR-RES; type: cell-based; conditions: Homo sapiens, read-out: % Growth Inhibition (GI %)
From the text: as §1

786-0 = experiment: NCI anticancer screening, Renal Cancer 786-0; type: cell-based; conditions: Homo sapiens; 786-0, 10 μM; read-out: % Growth Inhibition (GI %)
From the text: as §1

ACHN = experiment: NCI anticancer screening, Renal Cancer ACHN; type: cell-based; conditions: Homo sapiens, read-out: % Growth Inhibition (GI %)
From the text: as §1

RXF 393 = experiment: NCI anticancer screening, Renal Cancer RXF 393; type: cell-based; conditions: Homo sapiens; RXF 393, 10 μM; read-out: % Growth Inhibition (GI %)
From the text: as §1

SN12C = experiment: NCI anticancer screening, Renal Cancer SN12C; type: cell-based; conditions: Homo sapiens, read-out: % Growth Inhibition (GI %)
From the text: as §1

DU-145 = experiment: NCI anticancer screening, DU-145; type: cell-based; conditions: Homo sapiens; DU-145, 10 μM; read-out: % Growth Inhibition (GI %)
From the text: as §1

MCF7 = experiment: NCI anticancer screening, Breast Cancer MCF7; type: cell-based; conditions: Homo sapiens; MCF7, 10 μM; read-out: % Growth Inhibition (GI %)
From the text: as §1

HS 578T = experiment: NCI anticancer screening, Breast Cancer HS 578T; type: cell-based; conditions: Homo sapiens, read-out: % Growth Inhibition (GI %)
From the text: as §1

BT-549 = experiment: NCI anticancer screening, Breast Cancer BT-549; type: cell-based; conditions: Homo sapiens; BT-549, 10 μM; read-out: % Growth Inhibition (GI %)
From the text: as §1

MDA-MB-468 = experiment: NCI anticancer screening, Breast Cancer MDA-MB-468; type: cell-based; conditions: Homo sapiens, read-out: % Growth Inhibition (GI %)
From the text: as §1

MDA-MB 231 cells = conditions: for inhibition: 5 µM

Structure (SMILES)	inhibition at 10 µM (CCRF-CEM) [%]	inhibition at 10 µM (HL-60(TB)) [%]	inhibition at 10 µM (K-562) [%]	inhibition at 10 µM (A549/ATCC) [%]	inhibition at 10 µM (HOP-62) [%]	inhibition at 10 µM (NCI-H23) [%]	inhibition at 10 µM (NCI-H322M) [%]	inhibition at 10 µM (HCC-2998) [%]	inhibition at 10 µM (HCT-116) [%]	inhibition at 10 µM (HCT-15) [%]	inhibition at 10 µM (HT29) [%]	inhibition at 10 µM (KM12) [%]	inhibition at 10 µM (SW-620) [%]	inhibition at 10 µM (SF-268) [%]	inhibition at 10 µM (SF-295) [%]	inhibition at 10 µM (SNB-75) [%]	inhibition at 10 µM (U251) [%]	inhibition at 10 µM (LOX IMVI) [%]	inhibition at 10 µM (MALME-3M) [%]	inhibition at 10 µM (M14) [%]	also measured
O=C(c1nc2ccccc2[nH]1)[C@H]1[C@H](c2ccccc2)C2CSCN2[C@]12C(=O)Nc1ccccc12 (mixture of isomers) [Compound 6a, (3S,6′R)-6'-(1H-benzo [d]imidazole-2-carbonyl)-7′-phenyl-3′,6′,7′,7a′-tetrahydro-1′H-spiro [indoline-3.5′-pyrrolo [1,2-c]thiazol]-2-one]	111	101	105	98.7	99.3	104	98.1	109	106	109	98.8	105	97.8	98.1	104	79.8	93.9	98.7	101	107	inhibition at 10 µM (MDA-MB-435): 103%; inhibition at 10 µM (SK-MEL-28): 103%; inhibition at 10 µM (SK-MEL-5): 92.7%; inhibition at 10 µM (IGROV1): 91.4%; inhibition at 10 µM (OVCAR-4): 108%; inhibition at 10 µM (OVCAR-5): 104%; inhibition at 10 µM (OVCAR-8): 96.1%; inhibition at 10 µM (NCI/ADR-RES): 105%; inhibition at 10 µM (786-0): 102%; inhibition at 10 µM (ACHN): 99.5%; inhibition at 10 µM (RXF 393): 101%; inhibition at 10 µM (SN12C): 106%; inhibition at 10 µM (DU-145): 115%; inhibition at 10 µM (MCF7): 98.1%; inhibition at 10 µM (HS 578T): 103%; inhibition at 10 µM (BT-549): 102%; inhibition at 10 µM (MDA-MB-468): 100%; IC50 (MDA-MB 231 cells): 2.97 ± 0.047 µM; inhibition (MDA-MB 231 cells): 55.5 ± 0.761%
Cc1ccc([C@@H]2C3CSCN3[C@]3(C(=O)Nc4ccccc43)[C@H]2C(=O)c2nc3ccccc3[nH]2)cc1 (mixture of isomers) [Compound 6d, (3S,6′R)-6'-(1H-Benzo [d]imidazole-2-carbonyl)-7'-(p-tolyl)-3′,6′,7′,7a′-tetrahydro-1′H-spiro [indoline-3.5′-pyrrolo [1,2-c]thiazol]-2-one]	89.5	96.2	81.6	75.4	105	91.2	83.1	94.9	74.5	83.6	69.2	75.4	92	64	59	61.4	73.3	82	85.3	74.7	inhibition at 10 µM (MDA-MB-435): 70.6%; inhibition at 10 µM (SK-MEL-28): 98.8%; inhibition at 10 µM (SK-MEL-5): 83.3%; inhibition at 10 µM (IGROV1): 75%; inhibition at 10 µM (OVCAR-4): 62.4%; inhibition at 10 µM (OVCAR-5): 95.2%; inhibition at 10 µM (OVCAR-8): 95.9%; inhibition at 10 µM (NCI/ADR-RES): 86.2%; inhibition at 10 µM (786-0): 86.1%; inhibition at 10 µM (ACHN): 88.9%; inhibition at 10 µM (RXF 393): 57.1%; inhibition at 10 µM (SN12C): 85.2%; inhibition at 10 µM (DU-145): 106%; inhibition at 10 µM (MCF7): 70.4%; inhibition at 10 µM (HS 578T): 78.6%; inhibition at 10 µM (BT-549): 96.2%; inhibition at 10 µM (MDA-MB-468): 63.5%; IC50 (MDA-MB 231 cells): 4.3 ± 0.137 µM; inhibition (MDA-MB 231 cells): 51.7 ± 1.3%
